Where two headings read alike, the source gives them in different places.
What was measured:
[1] = test system: Tetranychus urticae; assay: Tetranychus urticae spray test, OP-resistant; type: in vivo; conditions: 500 g/ha, bean leaf discs, after 6 days
Method: Tetranychus urticae—Spray Test, OP-Resistant
(§1) To produce a suitable preparation of active compound, 1 part by weight of active compound is dissolved using the stated parts by weight of solvent and made up with water containing an emulsifier concentration of 1000 ppm until the desired concentration is attained. To produce further test concentrations, the preparation is diluted with emulsifier-containing water.
Discs of bean leaves (Phaseolus vulgaris) infested with all stages of the greenhouse red spider mite (Tetranychus urticae) are sprayed with an active compound preparation of the desired concentration.
After 6 days, the efficacy in % is determined. 100% means that all the spider mites have been killed; 0% means that none of the spider mites have been killed.

[2] = log P determination by HPLC on reversed-phase columns (C 18), analogous to OECD Guideline 117; type: physicochemical; conditions: for chromatographic logP: reversed-phase C18 HPLC column
Method: The log P values were determined analogously to OECD Guideline 117 (EC Directive 92/69/EEC) by HPLC (high-performance liquid chromatography) using reversed-phase columns (C 18), by the following methods: [a] The LC-MS determination in the acidic range was effected at pH 2.7 with 0.1% aqueous formic acid and acetonitrile (contains 0.1% formic acid) as eluents; linear gradient from 10% acetonitrile to 95% acetonitrile. log P^[a] is also referred to as log P(HCOOH). [b] LC-MS determination in the neutral range was effected at pH 7.8 with 0.001 molar aqueous ammonium hydrogencarbonate solution and acetonitrile as eluents; linear gradient from 10% acetonitrile to 95% acetonitrile. log P^[…] is also referred to as log P(neutral).

[3] = test system: Boophilus microplus; assay: Boophilus microplus injection test; type: in vivo; conditions: 20 μg/animal, injection into engorged adult female cattle ticks, after 7 days; 100% = no fertile eggs
Method: Boophilus microplus—Injection Test Solvent: dimethyl sulfoxide To produce a suitable preparation of active compound, 10 mg of active compound are mixed with 0.5 ml of solvent and the concentrate is diluted with solvent to the desired concentration. 1 μl of the active compound solution is injected into the abdomen of 5 engorged adult female cattle ticks (Boophilus microplus). The animals are transferred into dishes and kept in a climate-controlled room. Efficacy is assessed after 7 days by laying of fertile eggs. Eggs which are not visibly fertile are stored in a climate-controlled cabinet until the larvae hatch after about 42 days. An efficacy of 100% means that none of the ticks has laid any fertile eggs; 0% means that all the eggs are fertile.

[4] = test system: Meloidogyne incognita; assay: Meloidogyne incognita test; type: in vivo; conditions: 20 ppm, lettuce, after 14 days; 100% = no galls
Method: Meloidogyne incognita Test Solvent: 125.0 parts by weight of acetone To produce a suitable preparation of active compound, 1 part by weight of active compound is mixed with the stated amount of solvent and the concentrate is diluted with water to the desired concentration. Vessels are filled with sand, active compound solution, an egg/larvae suspension of the southern root-knot nematode (Meloidogyne incognita) and lettuce seeds. The lettuce seeds germinate and the plants develop. The galls develop on the roots. After 14 days, the nematicidal efficacy in % is determined by the formation of galls. 100% means that no galls were found; 0% means that the number of galls on the treated plants corresponds to the untreated control.

[5] = test system: Phaedon cochleariae; assay: Phaedon cochleariae spray test; type: in vivo; conditions: 500 g/ha, Chinese cabbage leaf discs, after 7 days
Method: Phaedon cochleariae—Spray Test
as §1
After 7 days, the efficacy in % is determined. 100% means that all the beetle larvae have been killed; 0% means that no beetle larvae have been killed.

[6] = acidic range, pH 2.7, 0.1% aqueous formic acid and acetonitrile, read-out: logP(HCOOH)
[7] = neutral range, pH 7.8, 0.001 molar aqueous ammonium hydrogencarbonate and acetonitrile, read-out: logP(neutral)
[8] = acidic range, pH 2.7, 0.1% aqueous formic acid and acetonitrile
[9] = neutral range, pH 7.8, 0.001 molar aqueous ammonium hydrogencarbonate and acetonitrile

Row | SMILES | chromatographic logP [2, 6] | chromatographic logP [2, 7] | efficacy (spider mites killed) [1] [%] | logP(HCOOH) [2, 8] | logP(neutral) [2, 9] | efficacy (laying of fertile eggs) [3] [%] | nematicidal efficacy (formation of galls) [4] [%] | efficacy (beetle larvae killed) [5] [%]
1 | Cc1cc(Cl)c(-n2cnc3ncccc3c2=O)cc1[S+]([O-])CC(F)(F)F (stereo not drawn) [Compound 18] |  |  | 100 | 1.77 | 1.73 |  |  | 
2 | Cc1cc(F)c(-n2cnc3ccncc3c2=O)cc1[S+]([O-])CC(F)(F)F (stereo not drawn) [Compound 14] |  |  | 90 | 1.61 | 1.64 | 100 |  | 
3 | Cc1cc(F)c(-n2cnc3cnccc3c2=O)cc1SCC(F)(F)F [Compound 12] |  |  |  | 2.55 | 2.56 |  |  | 
4 | Cc1cc(F)c(-n2cnc3cnccc3c2=O)cc1[S+]([O-])CC(F)(F)F (stereo not drawn) [Compound 13] |  |  | 100 | 1.60 | 1.63 |  |  | 
5 | Cc1cc(C)c([S+]([O-])CC(F)(F)F)cc1-n1c(C)nc2ncccc2c1=O (stereo not drawn) [Compound 17] |  |  | 90 | 1.67 | 1.67 |  | 90 | 
6 | Cc1cc(C)c([S+]([O-])CC(F)(F)F)cc1-n1cnc2ncccc2c1=O (stereo not drawn) [Compound 6] |  |  | 100 | 1.62 | 1.61 | 100 |  | 
7 | Cc1cc(C)c(-n2c(C)nc3ncccc3c2=O)cc1SCC(F)(F)F [Compound 16] |  |  |  | 2.63 | 2.60 |  |  | 
8 | Cc1cc(F)c(-n2cnc3cccnc3c2=O)cc1SCC(F)(F)F [Compound 9] |  |  | 100 | 2.33 |  |  |  | 
9 | Cc1cc(C)c(-n2cnc3ncccc3c2=O)cc1SCC(F)(F)F [Compound 4] |  |  | 100 | 2.53 | 2.54 |  |  | 
10 | Cc1cc(Cl)c(-n2cnc3ncccc3c2=O)cc1SCC(F)(F)F [Compound 15] |  |  |  | 2.62 | 2.62 |  |  | 
11 | O=c1c2cccnc2ncn1-c1cc(SCC(F)(F)F)c(Cl)cc1Cl [Compound 3] |  |  |  | 2.73 | 2.68 |  |  | 
12 | Cc1cc(F)c(-n2cnc3cccnc3c2=O)cc1[S+]([O-])CC(F)(F)F (stereo not drawn) [Compound 11] |  |  | 100 | 1.49 | 1.46 |  |  | 100
13 | O=c1c2cccnc2ncn1-c1cc([S+]([O-])CC(F)(F)F)c(Cl)cc1Cl (stereo not drawn) [Compound 7] |  |  | 90 | 1.98 | 1.84 |  |  | 
14 | Cc1cc(F)c(-n2cnc3ccncc3c2=O)cc1SCC(F)(F)F [Compound 1] |  |  | 100 | 2.54 | 2.56 |  |  | 

Second part, led by results:

Row | chromatographic logP [2, 6] | chromatographic logP [2, 7] | SMILES | efficacy (spider mites killed) [1] [%] | logP(HCOOH) [2, 8] | logP(neutral) [2, 9] | efficacy (laying of fertile eggs) [3] [%] | nematicidal efficacy (formation of galls) [4] [%] | efficacy (beetle larvae killed) [5] [%]
15 | 1.56 | 1.56 | Cc1cc(F)c(-n2cnc3ncccc3c2=O)cc1[S+]([O-])CC(F)(F)F (stereo not drawn) [Compound 5, 3-{2-Fluoro-4-methyl-5-[(2,2,2-trifluoroethyl)sulfinyl]phenyl}pyrido[2,3-d]pyrimidin-4(3H)-one] | 90 |  |  |  |  | 
16 | 2.43 | 2.43 | Cc1cc(F)c(-n2cnc3ncccc3c2=O)cc1SCC(F)(F)F [Compound 2, 3-{2-Fluoro-4-methyl-5-[(2,2,2-trifluoroethyl)sulfanyl]phenyl}-2-pyrido [2,3-d]pyrimidin-4(3H)-one] | 90 |  |  |  |  | 
17 | 1.66 | 1.64 | Cc1cc(F)c(-n2c(C)nc3ncccc3c2=O)cc1[S+]([O-])CC(F)(F)F (stereo not drawn) [Compound 10, 3-{2-Fluoro-4-methyl-5-[(2,2,2-trifluoroethyl)sulfinyl]phenyl}-2-mehtylpyrido[2,3-d]pyrimidin-4(3H)-one] | 100 |  |  |  |  | 
18 | 1.7 | 2.71 | Cc1cc(F)c(NC(=O)c2cccnc2N)cc1SCC(F)(F)F [2-Amino-N-{2-fluoro-4-methyl-5-[(2,2,2-trifluoroethyl)sulfanyl]phenyl}nicotinamide] |  |  |  |  |  | 
19 | 0.42 | 0.43 | Cc1nc2ncccc2c(=O)o1 [2-Methyl-4H-pyrido[2,3-d][1,3]oxazin-4-one] |  |  |  |  |  | 
20 | 2.55 | 2.52 | Cc1cc(F)c(-n2c(C)nc3ncccc3c2=O)cc1SCC(F)(F)F [Compound 8, 3-{2-Fluoro-4-methyl-5-[(2,2,2-trifluoroethyl)sulfanyl]phenyl}-2-mehtylpyrido[2,3-d]pyrimidin-4(3H)-one] | 100 |  |  |  |  | 

Reference: patent US20160108038A1, “BICYCLIC ARYL SULFIDE AND ARYL SULFOXIDE DERIVATIVES AS PEST CONTROL AGENT” (BAYER CROPSCIENCE AKTIENGESELLSCHAFT, priority 2013, published 2016)
